Data reported in ChEMBL document CHEMBL1201862, “PubChem BioAssay data set” (2004).
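Interpolation was linear, between the two tested concentrations surrounding the appropriate level; five concentrations were tested over 48 hours in 96-well plates. The concentration for 50% growth inhibition is given as GI50.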 Active and inactive are the calls of the source. Rule as the data show it: active = GI50 up to about 1.1 µM and inactive = higher.

What was measured:
Assay in all cases: NCI tumour cell line growth inhibition, 48 h
[1] = test system: A549
[2] = test system: CAKI-1
[3] = test system: IGROV-1
[4] = test system: KM12
[5] = test system: M14
[6] = test system: NCI-H226
[7] = test system: SK-MEL-5
[8] = test system: SN12C
[9] = test system: UACC-257
[10] = test system: UACC-62
[11] = test system: UO-31
[12] = test system: HL-60
[13] = test system: SR

| SMILES | GI50 [1] | GI50 [2] | GI50 [3] | GI50 [4] | GI50 [5] | GI50 [6] | GI50 [7] | GI50 [8] | GI50 [9] | GI50 [10] | GI50 [11] | GI50 [12] | GI50 [13] |
| --- | --- | --- | --- | --- | --- | --- | --- | --- | --- | --- | --- | --- | --- |
| Cc1cc(C)nc(NS(=O)(=O)c2ccc(NC(=O)c3cccc4c(N)c5ccccc5nc34)cc2)n1 | > 100 µM (inactive) | > 100 µM (inactive) | > 100 µM (inactive) | 40.6 µM (inactive) | > 100 µM (inactive) | > 100 µM (inactive) | > 100 µM (inactive) | > 100 µM (inactive) | > 100 µM (inactive) | > 100 µM (inactive) | > 100 µM (inactive) |  |  |
| CCN(CC)CCOC(=O)/C(=C/c1ccc(OC)cc1)c1cc(OC)c(OC)c(OC)c1 | 5.56 µM (inactive) | 4.42 µM (inactive) | 6.01 µM (inactive) | 3.77 µM (inactive) | 6.43 µM (inactive) | 13.5 µM (inactive) | 3.26 µM (inactive) | 16.1 µM (inactive) | 5.46 µM (inactive) | 3.71 µM (inactive) | 5.13 µM (inactive) | 3.3 µM (inactive) |  |
| Clc1ccccc1C(n1cc(Br)cn1)n1cc(Br)cn1 |  | 19 µM (inactive) | > 10 µM (inactive) | 15.3 µM (inactive) | 16.3 µM (inactive) | > 10 µM (inactive) | 11 µM (inactive) | 16.3 µM (inactive) | 14.7 µM (inactive) | > 10 µM (inactive) | 12.6 µM (inactive) | 14.7 µM (inactive) | 18.8 µM (inactive) |
| CC(=O)O[C@]1(C)OC(=O)[C@@H](C)N1[N+](=O)[O-] | > 100 µM (inactive) |  | > 100 µM (inactive) | > 100 µM (inactive) | > 100 µM (inactive) | > 100 µM (inactive) | > 100 µM (inactive) | > 100 µM (inactive) | > 100 µM (inactive) | > 100 µM (inactive) | > 100 µM (inactive) | 32.1 µM (inactive) | 34.9 µM (inactive) |
| CC(=O)Nc1ccc2c(c1)C(=O)c1ccccc1-2 | > 100 µM (inactive) |  | > 100 µM (inactive) | > 100 µM (inactive) | > 100 µM (inactive) | > 100 µM (inactive) |  | > 100 µM (inactive) | > 100 µM (inactive) | > 100 µM (inactive) | > 100 µM (inactive) | > 100 µM (inactive) | > 100 µM (inactive) |
| CC(=O)C1CC=C(C)CC1 (stereo not given) | > 100 µM (inactive) | > 100 µM (inactive) | > 100 µM (inactive) | > 100 µM (inactive) | > 100 µM (inactive) | > 100 µM (inactive) | > 100 µM (inactive) | > 100 µM (inactive) | > 100 µM (inactive) | > 100 µM (inactive) | > 100 µM (inactive) | > 100 µM (inactive) | > 100 µM (inactive) |
| O=C(Nc1ccc(Cl)cc1Cl)C(=O)C(C(=O)c1ccc2ccccc2c1)C1OC(=O)c2ccccc21 (stereo not given) | 8.32 µM (inactive) | 13.5 µM (inactive) | 13.6 µM (inactive) | 15 µM (inactive) | 13.4 µM (inactive) | 1.73 µM (inactive) | 9.73 µM (inactive) | 11.7 µM (inactive) | 12.6 µM (inactive) | 9.79 µM (inactive) | 11.4 µM (inactive) | 2.96 µM (inactive) |  |
| COc1cc2c(cc1OC)C(C(=O)O)C(c1ccccc1)N(C)C2=O (stereo not given) | > 100 µM (inactive) | > 100 µM (inactive) | > 100 µM (inactive) | > 100 µM (inactive) | > 100 µM (inactive) |  | > 100 µM (inactive) | > 100 µM (inactive) | > 100 µM (inactive) | > 100 µM (inactive) | > 100 µM (inactive) |  |  |
| CC(=O)OCC1OC(OCc2ccccc2)C(Br)C(OC(C)=O)C1OC(C)=O (stereo not given) | > 100 µM (inactive) | > 100 µM (inactive) | > 100 µM (inactive) | > 100 µM (inactive) | > 100 µM (inactive) | > 100 µM (inactive) | > 100 µM (inactive) | > 100 µM (inactive) | > 100 µM (inactive) | > 100 µM (inactive) |  | > 100 µM (inactive) | > 100 µM (inactive) |
| NCCOc1ccc(/C(=C(/Cl)c2ccccc2)c2ccccc2)cc1 | 16 µM (inactive) | 8.34 µM (inactive) | 14.4 µM (inactive) | 5.18 µM (inactive) | 2.26 µM (inactive) | 18.7 µM (inactive) | 9.1 µM (inactive) | 9.66 µM (inactive) | 10.8 µM (inactive) | 11 µM (inactive) | 9.16 µM (inactive) | 3.74 µM (inactive) | 3.21 µM (inactive) |
| O=C(Nc1ccc(Nc2ccc(NC(=O)c3ccccc3)c3c2C(=O)c2ccccc2C3=O)c2c1C(=O)c1ccccc1C2=O)c1ccccc1 | > 100 µM (inactive) | > 100 µM (inactive) | > 100 µM (inactive) | > 100 µM (inactive) | > 100 µM (inactive) | > 100 µM (inactive) | > 100 µM (inactive) | > 100 µM (inactive) | > 100 µM (inactive) | > 100 µM (inactive) | > 100 µM (inactive) | > 100 µM (inactive) | > 100 µM (inactive) |
| O=C(Nc1nc2ccc([N+](=O)[O-])cc2s1)C(=O)C(C(=O)c1ccncc1)C1OC(=O)c2ccccc21 (stereo not given) | > 100 µM (inactive) | > 100 µM (inactive) | > 100 µM (inactive) | > 100 µM (inactive) | > 100 µM (inactive) | > 100 µM (inactive) |  | > 100 µM (inactive) | > 100 µM (inactive) | > 100 µM (inactive) |  | > 100 µM (inactive) | > 100 µM (inactive) |
| Cc1c(/C=N/NC(=O)c2ccc(Cl)cc2)c(=O)n(-c2ccccc2)n1C | > 100 µM (inactive) |  | > 100 µM (inactive) | > 100 µM (inactive) | > 100 µM (inactive) | > 100 µM (inactive) |  | > 100 µM (inactive) | > 100 µM (inactive) | > 100 µM (inactive) | 95.5 µM (inactive) | > 100 µM (inactive) | > 100 µM (inactive) |
| Cc1cccc(NC(=O)CC#N)c1Cl | > 100 µM (inactive) | > 100 µM (inactive) | > 100 µM (inactive) | > 100 µM (inactive) | > 100 µM (inactive) | > 100 µM (inactive) |  | > 100 µM (inactive) | > 100 µM (inactive) | > 100 µM (inactive) | 99.3 µM (inactive) | > 100 µM (inactive) | > 100 µM (inactive) |
| O=C1C=CC(=O)C2C1Cc1ccccc1C2c1ccccc1 (stereo not given) | 30.1 µM (inactive) | 59 µM (inactive) | 67 µM (inactive) | 51.9 µM (inactive) | 42.8 µM (inactive) | 65.5 µM (inactive) | 64 µM (inactive) | 39.7 µM (inactive) | 28.1 µM (inactive) | > 100 µM (inactive) | 47.1 µM (inactive) | 23 µM (inactive) | 23.7 µM (inactive) |
| CC1=C(C(=O)Nc2ccccc2C)C(c2ccc([N+](=O)[O-])cc2)C(C(=O)Nc2ccccc2C)=C(C)N1 | 22.5 µM (inactive) | 36.6 µM (inactive) | 78 µM (inactive) | 39.3 µM (inactive) | 39.9 µM (inactive) | > 100 µM (inactive) | 11.3 µM (inactive) | 76.7 µM (inactive) | 55.3 µM (inactive) | 43.9 µM (inactive) | 20.5 µM (inactive) | 19.8 µM (inactive) |  |
| Cc1ccc(S(=O)(=O)CC(=O)CC(=O)C(=O)Nc2cccc(C(F)(F)F)c2)cc1 | > 100 µM (inactive) | > 100 µM (inactive) | > 100 µM (inactive) | > 100 µM (inactive) | > 100 µM (inactive) | > 100 µM (inactive) | > 100 µM (inactive) | > 100 µM (inactive) | > 100 µM (inactive) | > 100 µM (inactive) | > 100 µM (inactive) | 97.1 µM (inactive) | > 100 µM (inactive) |
| COc1ccc(S(=O)(=O)N/N=C\c2cc([N+](=O)[O-])cc(I)c2O)c(OC)c1OC | 59 µM (inactive) | 30.1 µM (inactive) | 32 µM (inactive) | 27.8 µM (inactive) | 28.4 µM (inactive) | 17.3 µM (inactive) | 21.2 µM (inactive) | 31.5 µM (inactive) | 26.7 µM (inactive) | 21.9 µM (inactive) | 18.5 µM (inactive) | 26.6 µM (inactive) |  |
| CCN(CC)CCCCC1CCN(CC(=O)N2CC(C)C(=O)Nc3ccccc32)CC1 (stereo not given) | > 100 µM (inactive) | > 100 µM (inactive) | > 100 µM (inactive) |  | > 100 µM (inactive) | > 100 µM (inactive) | > 100 µM (inactive) | > 100 µM (inactive) | > 100 µM (inactive) | > 100 µM (inactive) | > 100 µM (inactive) | > 100 µM (inactive) | > 100 µM (inactive) |
| COC(=O)C(C)(C)/N=C/N(C)C | > 100 µM (inactive) | > 100 µM (inactive) | > 100 µM (inactive) | > 100 µM (inactive) | > 100 µM (inactive) | > 100 µM (inactive) | > 100 µM (inactive) | > 100 µM (inactive) | > 100 µM (inactive) | > 100 µM (inactive) | > 100 µM (inactive) | 55.6 µM (inactive) | > 100 µM (inactive) |
| COC(=O)C1=C(c2ccc3c(c2)OCO3)O[C@H](c2cc(OC)c(OC)c(OC)c2)[C@H]1COC(C)=O | 7.08 µM (inactive) | 1.95 µM (inactive) | 6.84 µM (inactive) | 4.31 µM (inactive) | 1.71 µM (inactive) | 10.4 µM (inactive) | 0.973 µM (active) | 4.34 µM (inactive) | 4.4 µM (inactive) | 3.32 µM (inactive) | 4.31 µM (inactive) | 0.49 µM (active) | 1.35 µM (inactive) |
| CCOC1(COP(=O)(OCc2ccccc2)OCc2ccccc2)COC(COP(=O)(OCc2ccccc2)OCc2ccccc2)(OCC)CO1 (stereo not given) | 9.02 µM (inactive) | > 100 µM (inactive) | > 100 µM (inactive) | > 100 µM (inactive) | > 100 µM (inactive) | 89.7 µM (inactive) | > 100 µM (inactive) | > 100 µM (inactive) | > 100 µM (inactive) | > 100 µM (inactive) |  | 30.8 µM (inactive) | > 100 µM (inactive) |
